Source: article PMC4633953, “FR171456 is a specific inhibitor of mammalian NSDHL and yeast Erg26p” (Nature Communications, 2015)
Where “and” joins values, the source holds several entries; their conditions need not be identical. Equal values may be shown once.

Assays:
[1] = test system: Aspergillus favus NF4902; test: Antifungal MIC; format: cell-based
[2] = test system: R. oryzae; test: Combination with clinical antifungal agents (Loewe synergy); format: cell-based; settings: >1 is synergistic
[3] = test system: erg26Δ haploid yeast expressing mutant ERG26 alleles; test: Growth dose response of erg26Δ haploid yeast expressing mutant ERG26 alleles; format: cell-based, S. cerevisiae; settings: seven mutant ERG26 alleles, rich liquid media
Excerpt: To confirm that the observed ERG26 mutations are dominant and sufficient to confer FR171456 resistance, but retain the essential function of Erg26p, we assessed the growth of erg26Δ haploid yeast expressing wild-type ERG26 or one of seven mutant alleles inserted at another locus in rich liquid media. […] It was not possible to generate a haploid strain carrying a single copy of ERG26 encoding the Gly90Ser mutation after multiple attempts. Thus seven of the eight mutations within the coding region of ERG26 are both dominant for FR171456 resistance and retain sufficient enzymatic function to support life. This additional genetic data set confirms that Erg26p is the target of FR171456.
For EMS mutagenesis experiments, 1 × 10^8 cells were plated on one standard YPD agar plate containing 50 μM FR171456 in 2% DMSO v/v following a standard EMS mutagenesis protocol. After 2 days incubation at 30 °C 48 representative colonies were picked and retested in an overnight liquid assay for growth in YPD with or without 50 μM FR171456 in 2% DMSO v/v. Genomic DNA was prepared from 42 resistant clones (+ one wild type) and for each the entire ERG26 gene was sequenced following PCR amplification with high-fidelity polymerase. […]

[4] = test system: Candida albicans NF2103; test: Antifungal MIC; format: cell-based
[5] = biological target: T1, Erg26p (Saccharomyces cerevisiae, UniProt P53199); test: biochemical
T1 sequence (P53199 1-349): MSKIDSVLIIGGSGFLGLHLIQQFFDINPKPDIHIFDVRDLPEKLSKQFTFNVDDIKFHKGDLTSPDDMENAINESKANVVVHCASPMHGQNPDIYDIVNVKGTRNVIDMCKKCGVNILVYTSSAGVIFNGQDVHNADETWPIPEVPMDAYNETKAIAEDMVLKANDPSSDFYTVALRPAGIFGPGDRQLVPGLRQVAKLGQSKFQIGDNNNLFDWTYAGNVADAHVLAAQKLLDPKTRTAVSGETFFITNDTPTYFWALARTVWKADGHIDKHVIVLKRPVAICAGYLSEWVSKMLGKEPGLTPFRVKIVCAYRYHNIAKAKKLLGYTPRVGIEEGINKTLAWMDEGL
Protocol: To test this hypothesis an in vitro microsomal Erg26p activity assay[30] was used. Erg26p activity was directly assessed in the presence of increasing concentrations of FR171456 (10 nM–0.1 mM) in the presence of 150 μM carboxysterol substrate (Fig. 1c) and the cofactor NAD^+ (0.5 mM) followed by GC-MS detection of the product 4α-methyl-cholest-8,24-dien-3-one.
Wild-type yeast (FL200) microsomes were prepared as follows. Yeast cells were disrupted by glass bead homogenization (0.45-mm diameter) in 100 mM phosphate buffer (pH 7.5) containing 1.5 mM reduced glutathione and 30 mM nicotinamide for 8 min at 0 °C[44]. The cell extract was obtained by centrifugation at 10,000 × g for 20 min. Microsomes were then isolated by centrifuging the cell extract supernatant at 100,000 × g for 90 min. The resulting microsomal pellet was resuspended in 100 mM phosphate buffer (pH 7.5) containing 3 mM reduced glutathione and 20% glycerol (v/v) using an Elvehjem–Potter homogenizer. Yeast microsomes (1.2 mg of protein) were incubated in the presence of 4α-carboxy-4β-methyl-cholest-8,24-dien-3β-ol (50–300 mM) and NAD^+ (0.5 mM) for 35–45 min at 30 °C. After addition of coprostanone (2–6 μg) as internal standard, the reactions were extracted as described previously[12]. The extract was analysed by TLC on silica gel and eluted twice with CH2Cl2. The fraction migrating between a standard of 4-desmethyl-sterone (RF= 0.50) and 4,4-dimethyl-sterone (RF=0.70) was eluted and analysed using a GC-MS spectrometer (Agilent 5973 N).
In the case of inhibition assays, microsomes were incubated for 35–45 min at 30 °C in the presence of 4α-carboxy-4β-methyl-cholest-8,24-dien-3β-ol (50–300 mM) and a range of inhibitor concentration (0.01–100 μM) from which a dose–response curve was obtained allowing the corresponding I50 values to be determined.
The GC-MS spectrometer (Agilent 5973 N) was equipped with an ‘on column' injector and a capillary column (30 × 0.25 mm) coated with DB5 (H2 flow rate of 2 ml min^−1). The temperature program included a 30 °C min^−1 increase from 60 °C to 240 °C, and followed by a 2 °C/min increase from 240 °C to 280 °C. The areas of the GC peaks of coprostanone (tR=1.000) and of the produced 4α-methyl-cholest-8,24-dien-3-one (tR=1.139), corrected from endogenous component of the same tR (1.139) determined in the blank (boiled microsomes), allowed the rate of transformation of 4α-carboxy-4β-methyl-cholest-8,24-dien-3β-ol to be measured. Under these conditions, the estimated limit of detection of the 3βHSD/D activity was 0.1 nmol h^−1 mg^−1.

[6] = test system: sterol pathway intermediates in Huh-7 cells; settings: 80 nM vs 0 nM FR171456, 48 h
Protocol: In an attempt to understand which sterol (and other) metabolites are altered by FR171456 a metabolite-profiling experiment was conducted using cells from the original replicon assay exposed to vehicle or four concentrations of FR171456 (Fig. 1c,f, Methods, supplementary Fig. 2). Peaks in the mass spectra with statistically significant differences in intensities between the high (80 nM) and low (0 nM) concentration samples were selected by P values <0.01 (Student's t-test, Bonferroni corrected) and ranked by fold changes. Metabolite identities were assigned to those peaks whose m/z ratio corresponds to the mass of known metabolites (Supplementary Table 1).
Samples of cell pellets containing 8 × 10^6 cells each were lysed and extracted with 300 μl cold methanol (−80 °C) in ultrasonic bath for 10 min and subsequently agitated for 5 min before centrifugation at 10,000 g for 5 min at 4 °C. The supernatants were removed and the remaining pellets were again extracted twice. The supernatants from three extractions were then combined and dried using a SpeedVac (Savant, Fisher Scientific Inc., USA) for 2 h without heating. The residues were resuspended in 200 μl of 80% MeOH and centrifuged to remove any non-dissolvable particles. Finally, 10 μl of the supernatant was then diluted by factor 100 in MeOH/H2O (1:1) for mass spectrometric analysis.
The diluted sample (100 μl) was infused directly into a LTQ-Orbitrap mass spectrometer (Thermo Fisher Scientific, USA) using a HTC PAL autosampler (CTC Analytics, Zwingen, Switzerland) at a flow rate of 18 μl min^–1. A make-up flow, consisting of 70% ethanol and 0.1% formic acid, was delivered through a T-piece at 15 μl min^–1. Electrospray ionization and selected monitoring scan were applied. The total mass range m/z 100–2,000 was segmented into […] scan events with a width of mass window m/z 50 each. Mass resolution at m/z 400 was 100,000.
Each sample was measured in triplicate in positive ionization mode in random order. For quality and instrument stability control, the samples were interspersed with test mix infusion and pooled samples. Blank spectra were also recorded and the observed mass peaks of solvent and impurities were then suppressed in subsequent analysis.
The measured raw spectra were imported with in-house software written in the Igor package (Wavemetrics Inc.) for alignment, peak detection, and integral normalization. The table of exact peak masses and intensities (Supplementary Data, file Supplementary Dataset 1) were exported into the statistical software R, version 2.15.1, for subsequent univariate statistics and pathway analysis. For peak identification, the KEGG database was searched for matches of the observed peaks with endogenous metabolite entries. Metabolite masses with adducts of H^+, Na^+, or K^+ were considered a hit and possible identity of a peak if the difference between its exact monoisotopic mass and the observed mass plus adducts was below 3 p.p.m.

[7] = test system: HCV replicon subgenomic genotype 1b; test: HCV replicon assay in Huh-7 cells (luciferase); settings: Hepatitis C virus; Huh-7 cell-based assay, 48 h
Protocol: The inhibitor screening was performed in 1,536-well plate with 3,000 cells per well, using Huh-7 cells containing the HCV replicon subgenomic genotype 1b, maintained in DMEM, supplemented with (1 × ) L-glutamine (L-Glue), 1 × non-essential amino acids, 10% heat-inactivated fetal bovine serum (FBS), and 1 mg ml^–1 G418, and incubated with compounds for 48 h at 37 °C, 5% CO2. […] Following compound incubation, Resazurin solution (10 × : 1 μg μl^–1 Resazurin in DMSO) diluted to 1 × was then added to a volume of 0.5 μl to each well and incubated for further 3 h at 37 °C, 5% CO2 to monitor cell viability. Subsequently 15 μl, diluted 1:2 from stock of Steady- Glo (Promega) was added and the luminescence from the HCV replicon was monitored using the Envision (Envision US Lum, using 0.1 s per well measurement time).

[8] = test system: serum cholesterol; settings: cited from earlier work

For C=C(CCC(C)C1CCC2C1(C)CC(O)C13CC14C(=O)CC(O)C(C)(C(=O)O)C4C(=O)CC23O)C(C)C [FR171456, (1R,2aR,3R,5aR,5bS,7aR,8S,9S,11aS,12aR)-1,5b,9-trihydroxy-2a,8-dimethyl-3-((R)-6-methyl-5-methyleneheptan-2-yl)-7,11-dioxohexadecahydrocyclopenta[a]cyclopropa[e]-phenanthrene-8-carboxylic acid], the MIC [1] was 64 µg/mL and 144 µM, the Loewe synergy score ([2]; combination with Amphotericin B) was under 1 and the Loewe synergy score ([2]; combination with posaconazole) was under 1. The “change of growth IC50 compared with the isogenic control” value [3] was “increase in the IC50”, the MIC [4] was 32 µg/mL and 72 µM and the IC50 [5] was 2200 ± 500 nM. The “Fold change, m/z 401.3418 (calcidiol, 7α-hydroxycholest-4-en-3-one)” value [6] was 0.680, the “Fold change, m/z 463.3183 (pfaffic acid)” value [6] was “infinite” and the “Fold change, m/z 465.3339 (4α-methylzymosterol-4-carboxylate)” value [6] was 822.2. The “Fold change, m/z 467.3496 (3β-hydroxy-4β-methyl-5α-cholest-7-ene-4α-carboxylate)” value [6] was 3675.4, the “Fold change, m/z 489.3314 (not identified)” value [6] was “infinite” and the “Fold change, m/z 1198.8982 (not identified)” value [6] was 9665.6. For the same molecule, the IC50 [7] was 6.3 nM, the “dose giving significant reduction in serum cholesterol” value ([8]; rabbits treated for 3 weeks ref 14) was 1 µg/kg and the adverse effects ([8]; rabbits, 3 weeks, doses up to 1 mg kg^−1 ref 14) was “no adverse effects reported”. The side effects ([8]; rabbits, efficacious doses for 14 days ref 14) was “no reported side effects”.
